Measurements as given in patent publication US20110086834A1, “ALKYNYL ALCOHOLS AS KINASE INHIBITORS” (AMGEN INC., priority 2008, published 2011).

Molecular target: T1, NIK (Homo sapiens, UniProt Q99558)
T1 construct: Both assays utilize a truncated form of NIK containing only the catalytic domain; made in house; host or cells: baculovirus expression system (insect cells implied)
Experiment: homogenous time resolved fluorescence (HTRF) assay for NIK Ki measurement
Assay type: biochemical
Conditions: truncated NIK (catalytic domain only), autophosphorylation; 10 nM enzyme; 20, 100, 200 or 500 μM ATP; room temperature, 2 hours; read-out: Ki activity in the homogenous time resolved fluorescence (HTRF) assay for NIK

T1 sequence (Q99558 400-655 limits assumed): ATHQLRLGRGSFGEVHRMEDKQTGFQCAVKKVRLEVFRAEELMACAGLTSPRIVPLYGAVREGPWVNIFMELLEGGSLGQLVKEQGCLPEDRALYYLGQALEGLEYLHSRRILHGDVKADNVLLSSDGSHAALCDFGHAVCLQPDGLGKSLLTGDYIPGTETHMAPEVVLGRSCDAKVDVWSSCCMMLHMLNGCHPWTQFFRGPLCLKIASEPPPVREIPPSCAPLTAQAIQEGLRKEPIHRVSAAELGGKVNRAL

Compound	Ki
CC(O)(C#Cc1ccc(O[C@H]2CCOC2)c(Nc2nc(N)ncc2Cl)c1)c1nccs1 (some centres unmarked) [Example 155]	< 1 µM
Cn1cncc1C(O)C#Cc1ccc2c(c1)N(c1nc(N)ncc1Cl)CC2(C)C (single isomer, unassigned) [Example 42, (1R*)-3-(1-(2-amino-5-chloro-4-pyrimidinyl)-3,3-dimethyl-2,3-dihydro-1H-indol-6-yl)-1-(1-methyl-1H-imidazol-5-yl)-2-propyn-1-ol]	1 to 30 µM
CC(O)(C#Cc1cccc(N(CCN2CCOCC2)c2ccncn2)n1)c1nccs1 (centres unmarked) [Example 175, 4-(6-((2-morpholinoethyl)(pyrimidin-4-yl)amino)pyridin-2-yl)-2-(thiazol-2-yl)but-3-yn-2-ol]	1 to 30 µM
CN1CCC2(CC1)CN(c1nc(N)ncc1Cl)c1cc(C#CC(C)(O)c3nccs3)ccc12 (centres unmarked) [Example 282, 4-(1-(2-Amino-5-chloro-4-pyrimidinyl)-1′-methyl-1,2-dihydrospiro[indole-3,4′-piperidin]-6-yl)-2-(1,3-thiazol-2-yl)-3-butyn-2-ol]	< 1 µM
CC(O)(C#Cc1ccc(O[C@H]2CCOC2)c(Nc2ccncc2)c1)c1nccs1 (some centres unmarked) [Example 169]	1 to 30 µM
CC(O)(C#Cc1ccc2c(c1)N(c1nc(N)ncc1Cl)CC2(C)C)c1nccs1 (racemic) [Example 39, 4-(1-(2-amino-5-chloro-4-pyrimidinyl)-3,3-dimethyl-2,3-dihydro-1H-indol-6-yl)-2-(1,3-thiazol-2-yl)-3-Butyn-2-ol]	< 1 µM
CC(O)(C#Cc1ccc2c(c1)N(c1nc(N)ncc1Cl)CC2)c1ccccn1 (centres unmarked) [Example 308, 4-(1-(2-Amino-5-chloro-4-pyrimidinyl)-2,3-dihydro-1H-indol-6-yl)-2-(2-pyridinyl)-3-butyn-2-ol]	< 1 µM
Cc1cnc(C(C)(O)C#Cc2ccc3c(c2)N(c2ccncc2)CC3(C)C)s1 (centres unmarked) [Example 311, 4-(3,3-Dimethyl-1-(4-pyridinyl)-2,3-dihydro-1H-indol-6-yl)-2-(5-methyl-1,3-thiazol-2-yl)-3-butyn-2-ol]	< 1 µM
COCCNC(=O)c1c(-c2ccncn2)c2cc(C#CC(C)(O)c3nccs3)ccc2n1C (centres unmarked) [Example 90, 5-(3-hydroxy-3-(thiazol-2-yl)but-1-ynyl)-N-(2-methoxyethyl)-1-methyl-3-(pyrimidin-4-yl)-1H-indole-2-carboxamide]	< 1 µM
CC(O)(C#Cc1ccc2c(c1)N(c1ccncc1Cl)CC2(C)C)c1ncco1 (centres unmarked) [Example 314, 4-(1-(3-chloro-4-pyridinyl)-3,3-dimethyl-2,3-dihydro-1H-indol-6-yl)-2-(1,3-oxazol-2-yl)-3-butyn-2-ol]	< 1 µM
CC(O)(C#Cc1ccc2c(c1)N(c1ccnc(N)n1)CC2)c1ccsc1 (centres unmarked) [Example 274, 4-(1-(2-Amino-4-pyrimidinyl)-2,3-dihydro-1H-indol-6-yl)-2-(3-thienyl)-3-butyn-2-ol]	< 1 µM
CC(O)(C#Cc1ccc2c(c1)N(c1ccncc1)CC2(C)C)c1ncco1 (centres unmarked) [Example 307, 4-(3,3-Dimethyl-1-(4-pyridinyl)-2,3-dihydro-1H-indol-6-yl)-2-(1,3-oxazol-2-yl)-3-butyn-2-ol]	< 1 µM
CC(O)(C#Cc1ccc2c(c1)N(c1ccnc(N)n1)CC2)c1cccs1 (centres unmarked) [Example 273, 4-(1-(2-Amino-4-pyrimidinyl)-2,3-dihydro-1H-indol-6-yl)-2-(2-thienyl)-3-butyn-2-ol]	< 1 µM
CC(O)(C#Cc1ccc2c(c1)N(c1ccnc(N)n1)CC2)c1sccc1Cl (centres unmarked) [Example 284, 4-(1-(2-Amino-4-pyrimidinyl)-2,3-dihydro-1H-indol-6-yl)-2-(3-chloro-2-thienyl)-3-butyn-2-ol]	< 1 µM
COc1ccc(C#CC(C)(O)c2nccs2)cc1Nc1nc(N)ncc1Cl (centres unmarked) [Example 143, 4-(3-((2-amino-5-chloro-4-pyrimidinyl)amino)-4-(methyloxy)phenyl)-2-(1,3-thiazol-2-yl)-3-butyn-2-ol]	< 1 µM
CN1CCC2(CC1)CN(c1nc(N)ncc1Cl)c1cc(C#CC3(O)CCCC3)ccc12 [Example 185, 1-((1-(2-Amino-5-chloro-4-pyrimidinyl)-1′-methyl-1,2-dihydrospiro[indole-3,4′-piperidin]-6-yl)ethynyl)cyclopentanol]	< 1 µM

Continued, values first:

Ki	Compound
< 1 µM	Nc1ncc(F)c(N2CC3(CCOCC3)c3ccc(C#CC4(O)CCCC4)cc32)n1 [Example 206, 1-((1-(2-Amino-5-fluoro-4-pyrimidinyl)-1,2,2′,3′,5′,6′-hexahydrospiro[indole-3,4′-pyran]-6-yl)ethynyl)cyclopentanol]
1 to 30 µM	COc1ccc(Nc2cc(-n3ccc4ccc(C#CC5(O)CCCC5)cc43)ncn2)cc1 [Example 260, 1-((1-(6-((4-(methyloxy)phenyl)amino)-4-pyrimidinyl)-1H-indol-6-yl)-ethynyl)-cyclopentanol]
< 1 µM	Nc1ncc(Cl)c(N2CC3(CS(=O)(=O)C3)c3ccc(C#CC4(O)CCCC4)cc32)n1 [Example 212, 1-((1-(2-Amino-5-chloro-4-pyrimidinyl)-1′,1′-dioxido-1,2-dihydrospiro[indole-3,3′-thietan]-6-yl)ethynyl)cyclopentanol]
1 to 30 µM	Cc1cc([C@@](C)(O)C#Cc2ccc3c(c2)N(c2nc(N)ncc2Cl)CC3)no1 (single isomer, unassigned) [Example 24]
< 1 µM	COc1cc(C#CC2(O)CCCC2)cc2c1ccn2-c1nc(N)ncc1F [Example 102, 1-((1-(2-amino-5-fluoropyrimidin-4-yl)-4-methoxy-1H-indol-6-yl)ethynyl)cyclopentanol]
1 to 30 µM	O=C(NCCCN1CCOCC1)c1cnccc1-n1ccc2ccc(C#CC3(O)CCCC3)cc21 [Example 254, 4-(6-((1-Hydroxycyclopentyl)ethynyl)-1H-indol-1-yl)-N-(3-(4-morpholinyl)propyl)-3-pyridinecarboxamide]
< 1 µM	CC(C)(C)C(=O)n1cc(-c2nc(N)ncc2Cl)c2cc(C#CC3(O)CCCC3)ccc21 [Example 122, 1-(3-(2-amino-5-chloropyrimidin-4-yl)-5-(2-(1-hydroxycyclopentyl)ethynyl)-1H-indol-1-yl)-2,2-dimethylpropan-1-one]
< 1 µM	COCCC1(C)CN(c2nc(N)ncc2Cl)c2cc(C#CC3(O)CCCC3)ccc21 (centres unmarked) [Example 64, 1-((1-(2-amino-5-chloro-4-pyrimidinyl)-3-(2-methoxyethyl)-3-methyl-2,3-dihydro-1H-indol-6-yl)ethynyl)cyclopentanol]
< 1 µM	Cc1cc([C@@](C)(O)C#Cc2ccc3c(c2)N(c2nc(N)ncc2Cl)CC32CCOCC2)on1 (single isomer, unassigned) [Example 30]
< 1 µM	Nc1ncc(Cl)c(Nc2cc(C#CC3(O)CCCC3)ccc2OC2CCOCC2)n1 [Example 149, 1-(2-(3-(2-Amino-5-chloropyrimidin-4-ylamino)-4-(tetrahydro-2H-pyran-4-yloxy)phenyl)ethynyl)cyclopentanol]
< 1 µM	OC1(C#Cc2ccc3ccn(-c4ccnc(Nc5ccccc5)n4)c3c2)CCCC1 [Example 256, 1-((1-(2-(Phenylamino)-4-pyrimidinyl)-1H-indol-6-yl)ethynyl)cyclopentanol]
< 1 µM	Nc1ncc(Cl)c(-c2cn(CC(=O)N3CCOCC3)c3ccc(C#CC4(O)CCCC4)cc23)n1 [Example 128, 2-(3-(2-amino-5-chloropyrimidin-4-yl)-5-(2-(1-hydroxycyclopentyl)ethynyl)-1H-indol-1-yl)-1-morpholinoethanone]
< 1 µM	COCCn1cc(-c2nc(N)ncc2Cl)c2cc(C#CC3(O)CCCC3)ccc21 [Example 125, 1-(2-(3-(2-amino-5-chloropyrimidin-4-yl)-1-(2-methoxyethyl)-1H-indol-5-yl)ethynyl)cyclopentanol]
< 1 µM	Nc1nccc(N2CCc3ccc(C#CC4(O)CCSC4)cc32)n1 (centres unmarked) [Example 264, 3-((1-(2-amino-4-pyrimidinyl)-2,3-dihydro-tH-indol-6-yl)ethynyl)tetrahydro-3-thiopheneol]
< 1 µM	CNc1nccc(-c2c[nH]c3ccc(C#CC4(O)CCCC4)cc23)n1 [Example 111, 1-(2-(3-(2-(methylamino)pyrimidin-4-yl)-1H-indol-5-yl)ethynyl)cyclopentanol]
< 1 µM	N#Cc1cnc(N)nc1-c1c[nH]c2ccc(C#CC3(O)CCCC3)cc12 [Example 108, 2-amino-4-(5-(2-(1-hydroxycyclopentyl)ethynyl)-1H-indol-3-yl)pyrimidine-5-carbonitrile]
< 1 µM	Nc1ncc(Cl)c(-c2c[nH]c3ccc(C#CC4(O)CCCCC4)cc23)n1 [Example 109, 1-(2-(3-(2-amino-5-chloropyrimidin-4-yl)-1H-indol-5-yl)ethynyl)cyclohexanol]
< 1 µM	Nc1ncc(OCCOCCN2CCOCC2)c(-c2c[nH]c3ccc(C#CC4(O)CCCC4)cc23)n1 [Example 231, 1-((3-(2-Amino-5-(2-(2-(4-morpholinyl)ethoxy)ethoxy)-4-pyrimidinyl)-1H-indol-5-yl)ethynyl)cyclopentanol]
< 1 µM	COc1cc(C#CC2(O)CCCC2)cc2c1CCN2c1nc(N)ncc1F [Example 18, 1-(2-(1-(2-amino-5-fluoropyrimidin-4-yl)-4-methoxyindolin-6-yl)ethynyl)cyclopentanol]
< 1 µM	CNc1nc(N2CC3(CCOCC3)c3ccc(C#CC4(O)CCCC4)cc32)c2nc[nH]c2n1 [Example 207, 1-((1-(2-(Methylamino)-9H-purin-6-yl)-1,2,2′,3′,5′,6′-hexahydrospiro[indole-3,4′-pyran]-6-yl)ethynyl)cyclopentanol]
1 to 30 µM	CC(O)(C#Cc1ccc2c(c1)N(c1nc(N)ncc1Cl)CC2)c1nc(C#N)cs1 (centres unmarked) [Example 9, 2-(4-(1-(2-amino-5-chloropyrimidin-4-yl)indolin-6-yl)-2-hydroxybut-3-yn-2-yl)thiazole-4-carbonitrile]
< 1 µM	COCCOCCOc1cnc(N)nc1-c1c[nH]c2ccc(C#CC3(O)CCCC3)cc12 [Example 228, 1-((3-(2-Amino-5-(2-(2-methoxyethoxy)ethoxy)-4-pyrimidinyl)-1H-indol-5-yl)ethynyl)cyclopentanol]
